# Measurements reported in patent US6897244B2, “Dihydronootkatone and tetrahydronootkatone as repellents to arthropods” (Board of Supervisors of Louisiana State University and …, priority 2002, dated 2005).
# Experiments:
# [1] = system: fleas; settings: previously demonstrated, U.S. Ser. No. 09/932,555; cited from earlier work
# [2] = system: cockroaches; settings: previously discovered, U.S. Ser. No. 09/932,555; cited from earlier work
# [3] = system: Formosan subterranean termites; assay: Petri dish treated/untreated sand bioassay for repelling activity against termites; format: in vivo, Coptotermes formosanus; parameters: key to percent of termites on untreated sand vs expected value of 50% (Chi-Square, p≦0.05): “−” indicates the test was not significantly different from the expected value; “+” indicates the test was significantly different from the expected value
# Procedure: A carton nest (colony A) of Formosan subterranean termites was collected in Algiers, Louisiana in November 1997, and held in 250-liter cans. The cans were filled with pine as a food source, and kept at a temperature range of 24-26° C. Moistened corrugated cardboard rolls were used to retrieve termites from the cans. Once the termites migrated to the cardboard rolls, they were gently knocked from the cardboard rolls into clean rectangular plastic trays (40 cm×50 cm). Retrieved termites were isolated from debris by allowing them to cling to sheets of moistened paper towels. The average weight of each termite was 1.21 mg.
# To test for effectiveness of nootkatone, 1,10-dihydronootkatone and tetrahydronootkatone in repelling termites, a bioassay was conducted using Petri dishes (5 cm diameter and 1 cm height). To ensure adequate moisture for the termites, 1 ml of a hot agar solution (1.5% in H2O) was spread on the bottom of the Petri dish. After the agar cooled, sand that was treated as described below was spread on the bottom of the Petri dish. For the treated sand, purified 1,10-dihydronootkatone or tetrahydronootkatone were dissolved in 2 ml ethanol, and then diluted to achieve final concentrations of 1, 2, 5, 12.5, 25, 50, and 100 μg/g sand. The solution was mixed with 1 g sand that had been autoclaved and cooled. The control sand was autoclaved sand with only 200 μl ethanol added. One half of the surfaces in the Petri dishes were covered with 1 g treated sand, and the other half with 1 g untreated sand.
# The prepared Petri dishes were then used to evaluate the repelling activity against Formosan subterranean termites. Ten worker termites were added to each Petri dish, and the dishes were covered to eliminate light. Five replicate dishes were tested for each concentration and for the control. Termite position was recorded every 15 min during the first hour of testing by counting the number of termites observed on untreated sand. After the first hour, termite position was recorded each hour for 3 hr.
# Differences between the percent of termites on untreated sand and an expected value were statistically analyzed by a Chi-Square analysis, using an expected value of 50% and a significance level of p≦0.05.
# [4] = system: ticks; settings: previously discovered, U.S. Ser. No. 09/932,555; cited from earlier work
# [5] = system: ants; settings: previously discovered, U.S. Ser. No. 09/932,555; cited from earlier work
compound,measurement,setting,value
"C=C(C)C1CCC2=CC(=O)CC(C)C2(C)C1 (centres unmarked) [Nootkatone, 4,4a,5,6,7,8-hexahydro-6-isopropenyl-4,4a-dimethyl-2(3H)-naphthalenone]",effect on fleas,[1],not affected
same,activity against cockroaches,[2],repellent
same,"percent of termites on untreated sand vs expected value of 50% (Chi-Square, p≦0.05)","[3]; 2 μg/dish, 0.25 hour",−
same,"percent of termites on untreated sand vs expected value of 50% (Chi-Square, p≦0.05)","[3]; 2 μg/dish, 0.5 hour",−
same,"percent of termites on untreated sand vs expected value of 50% (Chi-Square, p≦0.05)","[3]; 2 μg/dish, 0.75 hour",−
same,"percent of termites on untreated sand vs expected value of 50% (Chi-Square, p≦0.05)","[3]; 2 μg/dish, 1 hour",−
same,"percent of termites on untreated sand vs expected value of 50% (Chi-Square, p≦0.05)","[3]; 2 μg/dish, 2 hour",−
same,"percent of termites on untreated sand vs expected value of 50% (Chi-Square, p≦0.05)","[3]; 2 μg/dish, 3 hour",−
same,"percent of termites on untreated sand vs expected value of 50% (Chi-Square, p≦0.05)","[3]; 5 μg/dish, 0.25 hour",−
same,"percent of termites on untreated sand vs expected value of 50% (Chi-Square, p≦0.05)","[3]; 5 μg/dish, 0.5 hour",−
same,"percent of termites on untreated sand vs expected value of 50% (Chi-Square, p≦0.05)","[3]; 5 μg/dish, 0.75 hour",−
same,"percent of termites on untreated sand vs expected value of 50% (Chi-Square, p≦0.05)","[3]; 5 μg/dish, 1 hour",−
same,"percent of termites on untreated sand vs expected value of 50% (Chi-Square, p≦0.05)","[3]; 5 μg/dish, 2 hour",−
same,"percent of termites on untreated sand vs expected value of 50% (Chi-Square, p≦0.05)","[3]; 5 μg/dish, 3 hour",−
same,"percent of termites on untreated sand vs expected value of 50% (Chi-Square, p≦0.05)","[3]; 12.5 μg/dish, 0.25 hour",−
same,"percent of termites on untreated sand vs expected value of 50% (Chi-Square, p≦0.05)","[3]; 12.5 μg/dish, 0.5 hour",−
same,"percent of termites on untreated sand vs expected value of 50% (Chi-Square, p≦0.05)","[3]; 12.5 μg/dish, 0.75 hour",−
same,"percent of termites on untreated sand vs expected value of 50% (Chi-Square, p≦0.05)","[3]; 12.5 μg/dish, 1 hour",−
same,"percent of termites on untreated sand vs expected value of 50% (Chi-Square, p≦0.05)","[3]; 12.5 μg/dish, 2 hour",−
same,"percent of termites on untreated sand vs expected value of 50% (Chi-Square, p≦0.05)","[3]; 12.5 μg/dish, 3 hour",−
same,"percent of termites on untreated sand vs expected value of 50% (Chi-Square, p≦0.05)","[3]; 25 μg/dish, 0.25 hour",−
same,"percent of termites on untreated sand vs expected value of 50% (Chi-Square, p≦0.05)","[3]; 25 μg/dish, 0.5 hour",−
same,"percent of termites on untreated sand vs expected value of 50% (Chi-Square, p≦0.05)","[3]; 25 μg/dish, 0.75 hour",−
same,"percent of termites on untreated sand vs expected value of 50% (Chi-Square, p≦0.05)","[3]; 25 μg/dish, 1 hour",−
same,"percent of termites on untreated sand vs expected value of 50% (Chi-Square, p≦0.05)","[3]; 25 μg/dish, 2 hour",−
same,"percent of termites on untreated sand vs expected value of 50% (Chi-Square, p≦0.05)","[3]; 25 μg/dish, 3 hour",−
same,"percent of termites on untreated sand vs expected value of 50% (Chi-Square, p≦0.05)","[3]; 50 μg/dish, 0.25 hour",+
same,"percent of termites on untreated sand vs expected value of 50% (Chi-Square, p≦0.05)","[3]; 50 μg/dish, 0.5 hour",−
same,"percent of termites on untreated sand vs expected value of 50% (Chi-Square, p≦0.05)","[3]; 50 μg/dish, 0.75 hour",−
same,"percent of termites on untreated sand vs expected value of 50% (Chi-Square, p≦0.05)","[3]; 50 μg/dish, 1 hour",+
same,"percent of termites on untreated sand vs expected value of 50% (Chi-Square, p≦0.05)","[3]; 50 μg/dish, 2 hour",−
same,"percent of termites on untreated sand vs expected value of 50% (Chi-Square, p≦0.05)","[3]; 50 μg/dish, 3 hour",−
same,"percent of termites on untreated sand vs expected value of 50% (Chi-Square, p≦0.05)","[3]; 100 μg/dish, 0.25 hour",+
same,"percent of termites on untreated sand vs expected value of 50% (Chi-Square, p≦0.05)","[3]; 100 μg/dish, 0.5 hour",+
same,"percent of termites on untreated sand vs expected value of 50% (Chi-Square, p≦0.05)","[3]; 100 μg/dish, 0.75 hour",+
same,"percent of termites on untreated sand vs expected value of 50% (Chi-Square, p≦0.05)","[3]; 100 μg/dish, 1 hour",+
same,"percent of termites on untreated sand vs expected value of 50% (Chi-Square, p≦0.05)","[3]; 100 μg/dish, 2 hour",+
same,"percent of termites on untreated sand vs expected value of 50% (Chi-Square, p≦0.05)","[3]; 100 μg/dish, 3 hour",+
same,concentration required for a significant effect of the treated sand on termite distribution,[3]; time periods greater than 1 hr,100 μg/dish
same,activity against ticks,[4],significant repellent and toxicant
same,activity against ants,[5],significant repellent and toxicant
